The record followed here is the NIST ThermoML archive (doi:10.1016/j.jct.2011.09.008).

± gives the expanded uncertainty stated by the source.

The conditions of data set [1]: 101 kPa, Liquid, Sing-around technique in a fixed-path interferometer.
The nature of data set [2]: xn = mol fraction of the nth substance listed. To be noted: 283.15 K; 101 kPa; Liquid; Sing-around technique in a fixed-path interferometer; x2 = 0.

Turning to `CCCOCC(C)O` (stereo unspecified) [1-propoxy-2-propanol], the speed of sound (in general, the propagation velocity of pressure waves in the medium) in data set [1] (283.15 K) is reported as 1301.9 ± 1.5 m/s; in data set [1] (288.15 K), 1283.2 ± 1.5 m/s; in data set [1] (293.15 K), 1264.5 ± 1.5 m/s; in data set [1] (298.15 K), 1245.8 ± 1.5 m/s; in data set [1] (303.15 K), 1227.3 ± 1.5 m/s.
As to `O` [water] + CCCOCC(C)O, in data set [2], the speed of sound worked out at 1447.3 ± 1.2 m/s.
